Data as given in patent US9598424B2 (Takeda Pharmaceutical Company Limited, priority 2014, dated 2017).

Columns and labels:
Full length human TBK1 = target: T1, Full length human TBK1 (Homo sapiens, UniProt Q9UHD2); experiment: Inhibition of TBK1 Enzyme (Caliper microfluidic assay); type: biochemical; conditions: 25 μM ATP, 60 min at RT; -log(IC50), IC50 molar; read-out: TBK1 Inhibition (pIC50) (converted)
T1 construct: Full length human TBK1 with an N-terminal His-tag; His-tag (N); made in house; host or cells: Sf9 insect cells (baculovirus, pFastBac1)
T1 sequence (Q9UHD2 1-729): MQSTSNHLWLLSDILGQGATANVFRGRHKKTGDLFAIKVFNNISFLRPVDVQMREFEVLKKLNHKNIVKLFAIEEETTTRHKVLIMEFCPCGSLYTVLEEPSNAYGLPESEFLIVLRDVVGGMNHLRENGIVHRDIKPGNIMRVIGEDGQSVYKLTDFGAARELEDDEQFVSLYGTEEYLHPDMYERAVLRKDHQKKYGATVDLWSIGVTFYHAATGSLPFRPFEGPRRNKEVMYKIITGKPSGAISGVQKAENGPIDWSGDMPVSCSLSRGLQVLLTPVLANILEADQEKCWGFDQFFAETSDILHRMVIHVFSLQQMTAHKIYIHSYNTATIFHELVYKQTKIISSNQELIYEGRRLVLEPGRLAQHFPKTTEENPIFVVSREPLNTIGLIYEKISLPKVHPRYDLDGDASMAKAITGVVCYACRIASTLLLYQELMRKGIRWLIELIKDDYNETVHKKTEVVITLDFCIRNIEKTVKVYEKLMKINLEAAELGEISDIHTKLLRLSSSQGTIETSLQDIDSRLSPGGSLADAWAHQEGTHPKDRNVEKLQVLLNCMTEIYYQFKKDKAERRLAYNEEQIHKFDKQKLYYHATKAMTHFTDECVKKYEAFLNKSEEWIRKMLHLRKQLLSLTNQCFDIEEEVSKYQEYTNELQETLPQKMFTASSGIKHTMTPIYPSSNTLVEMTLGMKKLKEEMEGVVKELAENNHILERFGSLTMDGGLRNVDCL
Method: Full length human TBK1 with an N-terminal His-tag was cloned into the pFastBacl vector and was transfected into Sf9 cells. 72 hours later the virus was harvested and amplified through two additional rounds of infections. Then 400 ml of the resulting virus stock was used to infect 10L of Sf9 cells at a density of 2×10^6 cells/ml. Cell pellets were harvested 48 hours post infection and were lysed by freeze-thaw, homogenization and sonication in binding buffer (25 mM Tris pH7.6, 1 M NaCl, 10 mM imidazole, 0.5 mM TCEP) plus 0.1% Triton X-100 and complete protease inhibitor cocktail. The lysate was spun and the supernatant was purified with a HisTrap FF crude and a Superdex 200 pg column.
TBK1 inhibition is determined using a 384 well plate format in buffer containing 20 mM Hepes, pH 7.4, 10 mM MgCl2, 1 mM EDTA, 0.01% Brij-L23, 1 mM DTT. Each test compound is prepared in DMSO using 2.5-fold serial dilutions for 11 data points, which are added to the buffer so that each dilution contains 1% DMSO. To each well is added 2 μL of 1 μm 5FAM-DRHDSGLDSMKDE-NH2 (in buffer), 2 μL of diluted test compound (1% DMSO in buffer), and 5 μL of 3 nM TBK1 and 25 μM ATP (in buffer). The reaction mixture is incubated at RT for 60 min, and quenched by adding 20 mM Hepes, pH 7.4, 10 mM MgCl2, 1 mM EDTA, 0.01% Brij-L23, 1 mM DTT+25 mM EDTA. To quantify the fluorescent-labeled substrate and product following reaction, the test plate is loaded on a Caliper LC-3000, which measures percent of conversion by microfluidic-based separation. Corresponding IC50 values are calculated by non-linear curve fitting of the compound concentrations and percent of inhibition to the standard IC50 equation and reported as pIC50, i.e., −log(IC50), where IC50 is the molar concentration.

TBK1 = target: T2, TBK1 (Homo sapiens, UniProt Q9UHD2); experiment: Inhibition of TBK1 in Cells (TLR3 driven ISRE β-lactamase reporter assay); type: cell-based; conditions: poly IC-LMW stimulation 16 hrs; -log(EC50), EC50 molar; read-out: Inhibition of TBK1 in cells pEC50 (EC) (converted)
T2 construct: host or cells: RA1-ISRE beta-lactamase reporter cells
T2 sequence (Q9UHD2 1-729): T1 sequence (Q9UHD2 1-729)
Method: TBK1 inhibition is determined using a TLR3 driven RA1-ISRE β-lacatamase reporter assay (Life Technologies). In the assay 50,000 cells/well are plated in black clear bottom 384 well plate. Each test compound is prepared in DMSO using 2.5-fold serial dilutions for 11 data points, which are then added to the media. Cells are stimulated with 0.15 mg/ml poly IC-LMW (Invivogen) for 16 hrs. Reporter activity is detected using the LiveBLAzer-FRET B/G CCF4-AM substrate (Life Technologies) and the plate is read using the Spectramax M5 instrument. Corresponding EC50 values are calculated by non-linear curve fitting of the compound concentrations and percent of inhibition to the standard EC50 equation and reported as pEC50, i.e., −log(EC50), where EC50 is the molar concentration.

IC50 (Full length human TBK1) | EC50 (TBK1) | Compound
158 nM | 25100 nM | O=C(N[C@H]1CCOC1)c1cc(-c2ccc3nc(NC(=O)C4CC4)cn3c2)[nH]n1 [Example 53, (S)-5-(2-(cyclopropanecarboxamido)imidazo[1,2-a]pyridin-6-yl)-N-(tetrahydrofuran-3-yl)-1H-pyrazole-3-carboxamide]
251 nM | 20000 nM | O=C(Nc1cn2cc(-c3csc(C(=O)N4CCOCC4)c3)ccc2n1)C1CC1 [Example 54, N-{6-[5-(morpholine-4-carbonyl)thiophen-3-yl]imidazo[1,2-a]pyridin-2-yl}cyclopropanecarboxamide]
6.31 nM | 275 nM | O=C(NCC(F)F)c1cc(-c2ccc3nc(NC(=O)C4CC4)cn3c2)cs1 [Example 55, 4-(2-(cyclopropanecarboxamido)imidazo[1,2-a]pyridin-6-yl)-N-(2,2-difluoroethyl)thiophene-2-carboxamide]
25.1 nM | 631 nM | CC(C)(NC(=O)c1cc(-c2ccc3nc(NC(=O)C4CC4)cn3c2)cs1)C(F)(F)F [Example 56, 4-(2-(cyclopropanecarboxamido)imidazo[1,2-a]pyridin-6-yl)-N-(1,1,1-trifluoro-2-methylpropan-2-yl)thiophene-2-carboxamide]
10 nM | 219 nM | CC(F)(F)CNC(=O)c1cc(-c2ccc3nc(NC(=O)C4CC4)cn3c2)cs1 [Example 57, 4-(2-(cyclopropanecarboxamido)imidazo[1,2-a]pyridin-6-yl)-N-(2,2-difluoropropyl)thiophene-2-carboxamide]
20 nM | 240 nM | CC(NC(=O)c1cc(-c2ccc3nc(NC(=O)C4CC4)cn3c2)cs1)C(F)(F)F (centres unmarked) [Example 59, 4-(2-(cyclopropanecarboxamido)imidazo[1,2-a]pyridin-6-yl)-N-(1,1,1-trifluoropropan-2-yl)thiophene-2-carboxamide]
15.8 nM | 234 nM | O=C(Nc1cn2cc(-c3csc(C(=O)N4CCCC4C(F)(F)F)c3)ccc2n1)C1CC1 (centres unmarked) [Example 60, N-(6-(5-(2-(trifluoromethyl)pyrrolidine-1-carbonyl)thiophen-3-yl)imidazo[1,2-a]pyridin-2-yl)cyclopropanecarboxamide]
39.8 nM | 2630 nM | O=C(Nc1cn2cc(-c3csc(C(=O)N4CCC[C@H]4C(F)(F)F)c3)ccc2n1)C1CC1 [Example 61, (S)-N-(6-(5-(2-(trifluoromethyl)pyrrolidine-1-carbonyl)thiophen-3-yl)imidazo[1,2-a]pyridin-2-yl)cyclopropanecarboxamide]
3.98 nM | 74.1 nM | O=C(Nc1cn2cc(-c3csc(C(=O)N4CCC[C@@H]4C(F)(F)F)c3)ccc2n1)C1CC1 [Example 62, (R)-N-(6-(5-(2-(trifluoromethyl)pyrrolidine-1-carbonyl)thiophen-3-yl)imidazo[1,2-a]pyridin-2-yl)cyclopropanecarboxamide]
15.8 nM | 372 nM | CC(C)CNC(=O)c1cc(-c2ccc3nc(NC(=O)C4CC4)cn3c2)cs1 [Example 63, 4-(2-(cyclopropanecarboxamido)imidazo[1,2-a]pyridin-6-yl)-N-isobutylthiophene-2-carboxamide]
20 nM | 676 nM | O=C(NCC1CC1)c1cc(-c2ccc3nc(NC(=O)C4CC4)cn3c2)cs1 [Example 65]
100 nM | 2040 nM | O=C(NC1CCOCC1)c1cc(-c2ccc3nc(NC(=O)C4CC4)cn3c2)cs1 [Example 66, 4-(2-(cyclopropanecarboxamido)imidazo[1,2-a]pyridin-6-yl)-N-(tetrahydro-2H-pyran-4-yl)thiophene-2-carboxamide]
63.1 nM | 1170 nM | O=C(NC1CCCOC1)c1cc(-c2ccc3nc(NC(=O)C4CC4)cn3c2)cs1 (centres unmarked) [Example 67, 4-(2-(cyclopropanecarboxamido)imidazo[1,2-a]pyridin-6-yl)-N-(tetrahydro-2H-pyran-3-yl)thiophene-2-carboxamide]
10 nM | 1020 nM | O=C(N[C@H]1CCCOC1)c1cc(-c2ccc3nc(NC(=O)C4CC4)cn3c2)cs1 [Example 68, (S)-4-(2-(cyclopropanecarboxamido)imidazo[1,2-a]pyridin-6-yl)-N-(tetrahydro-2H-pyran-3-yl)thiophene-2-carboxamide]
100 nM | 2880 nM | O=C(N[C@@H]1CCCOC1)c1cc(-c2ccc3nc(NC(=O)C4CC4)cn3c2)cs1 [Example 69, (R)-4-(2-(cyclopropanecarboxamido)imidazo[1,2-a]pyridin-6-yl)-N-(tetrahydro-2H-pyran-3-yl)thiophene-2-carboxamide]
31.6 nM | 891 nM | O=C(NC1CCOC1)c1cc(-c2ccc3nc(NC(=O)C4CC4)cn3c2)cs1 (centres unmarked) [Example 70, 4-(2-(cyclopropanecarboxamido)imidazo[1,2-a]pyridin-6-yl)-N-(tetrahydrofuran-3-yl)thiophene-2-carboxamide]
20 nM | 2400 nM | O=C(N[C@@H]1CCOC1)c1cc(-c2ccc3nc(NC(=O)C4CC4)cn3c2)cs1 [Example 71, (R)-4-(2-(cyclopropanecarboxamido)imidazo[1,2-a]pyridin-6-yl)-N-(tetrahydrofuran-3-yl)thiophene-2-carboxamide]
12.6 nM | 1200 nM | O=C(N[C@H]1CCOC1)c1cc(-c2ccc3nc(NC(=O)C4CC4)cn3c2)cs1 [Example 72, (S)-4-(2-(cyclopropanecarboxamido)imidazo[1,2-a]pyridin-6-yl)-N-(tetrahydrofuran-3-yl)thiophene-2-carboxamide]
63.1 nM | 1660 nM | COCCNC(=O)c1cc(-c2ccc3nc(NC(=O)C4CC4)cn3c2)cs1 [Example 73, 4-(2-(cyclopropanecarboxamido)imidazo[1,2-a]pyridin-6-yl)-N-(2-methoxyethyl)thiophene-2-carboxamide]
31.6 nM | 1350 nM | O=C(Nc1cn2cc(-c3csc(C(=O)N4CCC(F)(F)C4)c3)ccc2n1)C1CC1 [Example 74, N-(6-(5-(3,3-difluoropyrrolidine-1-carbonyl)thiophen-3-yl)imidazo[1,2-a]pyridin-2-yl)cyclopropanecarboxamide]
50.1 nM | 1700 nM | O=C(NCC1CCOC1)c1cc(-c2ccc3nc(NC(=O)C4CC4)cn3c2)cs1 (centres unmarked) [Example 75, 4-(2-(cyclopropanecarboxamido)imidazo[1,2-a]pyridin-6-yl)-N-((tetrahydrofuran-3-yl)methyl)thiophene-2-carboxamide]
15.8 nM | 912 nM | O=C(N[C@H]1CCCC[C@H]1O)c1cc(-c2ccc3nc(NC(=O)C4CC4)cn3c2)cs1 [Example 76, 4-(2-(cyclopropanecarboxamido)imidazo[1,2-a]pyridin-6-yl)-N-((1S,2R)-2-hydroxycyclohexyl)thiophene-2-carboxamide]
